Test results as given in ChEMBL document CHEMBL4020781, “Discovery of potent and orally active 1,4-disubstituted indazoles as novel allosteric glucokinase activators” (Bioorg Med Chem Lett, 2017).
The source made the active and inactive calls. The rule behind the calls is not given here.

Experiments:
[1] = target: T1, Hexokinase-4 (Homo sapiens) (UniProt P35557); experiment: Activation of full length human C-terminal FLAG-tagged glucokinase (12 to 465 residues) expressed in Escherichia coli DH10b using glucose as substrate after 60 mins in presence of ATP by kinase-glo luminescence assay relative to control
T1 sequence (whole entry): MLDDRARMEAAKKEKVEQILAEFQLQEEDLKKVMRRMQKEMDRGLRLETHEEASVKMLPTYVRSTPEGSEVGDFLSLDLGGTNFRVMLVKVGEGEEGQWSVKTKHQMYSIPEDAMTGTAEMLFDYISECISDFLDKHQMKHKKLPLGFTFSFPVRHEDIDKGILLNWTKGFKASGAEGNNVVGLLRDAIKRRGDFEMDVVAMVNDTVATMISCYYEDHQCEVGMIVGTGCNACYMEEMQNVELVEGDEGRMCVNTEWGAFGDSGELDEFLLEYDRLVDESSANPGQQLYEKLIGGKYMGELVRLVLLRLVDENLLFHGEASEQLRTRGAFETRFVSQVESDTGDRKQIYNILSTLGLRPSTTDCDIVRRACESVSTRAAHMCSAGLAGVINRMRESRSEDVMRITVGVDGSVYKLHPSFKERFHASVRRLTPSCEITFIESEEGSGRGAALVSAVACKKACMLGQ

Hexokinase-4 = target: T2, Hexokinase-4 (Homo sapiens, UniProt P35557); experiment: Activation of full length human C-terminal FLAG-tagged glucokinase (12 to 465 residues) expressed in Escherichia coli DH10b using glucose as substrate after 60 mins in presence of ATP by kinase-glo luminescence assay
T2 sequence (P35557 whole entry): T1 sequence (whole entry)

hERG (KCNH2) = hERG (KCNH2) (Homo sapiens, UniProt Q12809); experiment: Inhibition of human ERG at 10 uM
Chain of hERG (KCNH2) (Q12809 whole entry): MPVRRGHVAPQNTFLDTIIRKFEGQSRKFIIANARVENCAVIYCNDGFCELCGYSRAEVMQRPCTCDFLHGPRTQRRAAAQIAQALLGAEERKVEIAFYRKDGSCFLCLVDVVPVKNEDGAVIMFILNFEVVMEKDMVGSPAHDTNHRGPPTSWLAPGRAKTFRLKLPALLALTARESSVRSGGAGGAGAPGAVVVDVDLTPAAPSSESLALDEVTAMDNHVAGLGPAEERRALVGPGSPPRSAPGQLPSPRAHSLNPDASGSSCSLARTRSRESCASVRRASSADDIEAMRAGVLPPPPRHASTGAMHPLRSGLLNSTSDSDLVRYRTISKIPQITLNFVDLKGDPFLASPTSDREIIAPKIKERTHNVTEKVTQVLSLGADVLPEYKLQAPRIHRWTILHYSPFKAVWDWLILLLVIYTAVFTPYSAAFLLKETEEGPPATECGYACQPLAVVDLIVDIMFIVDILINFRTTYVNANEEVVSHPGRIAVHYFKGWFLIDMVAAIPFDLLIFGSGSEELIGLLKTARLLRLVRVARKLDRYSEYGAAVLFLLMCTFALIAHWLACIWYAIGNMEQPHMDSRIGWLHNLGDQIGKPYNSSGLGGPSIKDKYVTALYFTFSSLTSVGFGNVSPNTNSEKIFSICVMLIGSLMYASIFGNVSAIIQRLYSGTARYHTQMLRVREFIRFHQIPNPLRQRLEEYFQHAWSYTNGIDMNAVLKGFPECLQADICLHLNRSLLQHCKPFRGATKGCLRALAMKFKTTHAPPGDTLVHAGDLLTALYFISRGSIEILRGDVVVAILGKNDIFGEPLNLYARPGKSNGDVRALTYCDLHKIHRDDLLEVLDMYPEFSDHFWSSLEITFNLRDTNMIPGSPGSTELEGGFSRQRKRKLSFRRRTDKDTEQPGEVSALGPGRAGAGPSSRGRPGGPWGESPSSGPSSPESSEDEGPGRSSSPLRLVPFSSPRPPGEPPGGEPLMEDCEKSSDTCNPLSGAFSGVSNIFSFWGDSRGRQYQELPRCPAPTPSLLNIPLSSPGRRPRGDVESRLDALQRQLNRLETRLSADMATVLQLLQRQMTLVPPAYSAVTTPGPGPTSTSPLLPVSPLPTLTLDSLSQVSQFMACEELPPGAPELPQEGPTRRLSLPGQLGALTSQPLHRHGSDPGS

[2] = Hepatic extraction ratio in rat liver microsomes; assay type: ADME, microsome; conditions: read-out: ERH
[3] = Hepatic extraction ratio in human liver microsomes; assay type: ADME, microsome; conditions: read-out: ERH
[4] = target: T1, Hexokinase-4 (Homo sapiens); experiment: Potency index, ratio of (S)-N-(5-chlorothiazol-2-yl)-2-(4-(cyclopropylsulfonyl)-6-methyl-2-oxopyridin-1(2H)-yl)-3-(tetrahydro-2H-pyran-4-yl)propanamide EC50 to compound EC50 for full length human C-terminal FLAG-tagged glucokinase (12 to 465 residues)
[5] = Plasma protein binding in human; assay type: ADME, cell-free; conditions: read-out: PPB (converted)
Mus musculus [6] = experiment: Antidiabetic activity in ob/ob mouse assessed as reduction in glucose excursion at 30 mg/kg, po by oral glucose tolerance test; assay type: functional, organism-based
[7] = Clearance in orally dosed rat; assay type: ADME, organism-based; conditions: in vivo, po
[8] = Oral bioavailability in rat; assay type: ADME, organism-based; conditions: in vivo
[9] = Half life in orally dosed rat; assay type: ADME, organism-based; conditions: in vivo, po
Mus musculus [10] = experiment: Antidiabetic activity in C57BL/6J mouse assessed as glucose lowering effect at 30 mg/kg, po; assay type: functional, organism-based
Rattus norvegicus = experiment: Volume of distribution in orally dosed rat; assay type: ADME, organism-based; conditions: in vivo, po
[11] = Hepatic extraction ratio in mouse liver microsomes; assay type: ADME, microsome; conditions: read-out: ERH

%max [1] [%]	EC50 (Hexokinase-4) [nM]	Structure (SMILES)	inhibition at 10 µM (hERG (KCNH2)) [%]	also measured
38	200	NC(=O)c1cccnc1NC(=O)C(CC1CCOCC1)n1ncc2c(S(=O)(=O)C3CC3)cccc21 (racemic)	29	
0	> 100000	O=C(Nc1ncc(Cl)s1)C(CC1CCOCC1)n1ncc2ccc(S(=O)(=O)C3CC3)cc21 (racemic)		
37	4000	O=C(Nc1ncc(F)s1)[C@H](CC1CCOCC1)n1cc(S(=O)(=O)C2CC2)cn1		hepatic extraction ratio [2]: 0.31 to 0.39; hepatic extraction ratio [3]: 0.31 to 0.39
73	630	O=C(Nc1ncc(F)s1)[C@H](CC1CCCC1)n1cc(S(=O)(=O)C2CC2)cn1		hepatic extraction ratio [2]: 0.85; hepatic extraction ratio [3]: 0.91
0	> 100000	O=C(Nc1ncc(F)s1)C(CC1CCOCC1)n1cc(S(=O)(=O)c2cccc(Cl)c2)cn1 (racemic)		
65	31	O=C(Nc1ncc(Cl)s1)[C@H](CC1CCOCC1)n1ncc2c(S(=O)(=O)C3CC3)cccc21	85 to 93	Ratio EC50 [4]: 40; hepatic extraction ratio [3]: 0.67; fraction unbound [5]: 0.0004
83	40	O=C(Nc1ncc(F)s1)[C@H](CC1CCOCC1)n1ncc2c(S(=O)(=O)C3CC3)cccc21	84	
0	> 100000	CC(C)(C)S(=O)(=O)c1cnn(C(CC2CCOCC2)C(=O)Nc2ncc(F)s2)c1 (racemic)		
35	2000	O=C(Nc1ncc(Cl)s1)[C@H](CC1CCOCC1)n1cc(S(=O)(=O)C2CC2)cn1		hepatic extraction ratio [2]: 0.31 to 0.39; hepatic extraction ratio [3]: 0.31 to 0.39
50	7900	Cc1ccc(NC(=O)C(CC2CCOCC2)n2ncc3c(S(=O)(=O)C4CC4)cccc32)nn1 (racemic)	57	
74	5000	Cc1nnc(NC(=O)C(CC2CCOCC2)n2ncc3c(S(=O)(=O)C4CC4)cccc32)s1 (racemic)	23	
74	100	N#Cc1cc(S(=O)(=O)C2CC2)c2cnn(C(CC3CCOCC3)C(=O)Nc3ncc(F)s3)c2c1 (racemic)	83	
32	1000	O=C(Nc1ncc(Cl)s1)[C@H](CC1CCOCC1)n1cc(S(=O)(=O)C2CCCC2)cn1		
74	120	O=C(Nc1ncc(F)s1)[C@H](CC1CCOCC1)n1ncc2c(S(=O)(=O)C3CC3)ccnc21	71	
91	120	O=C(Nc1ncc(F)s1)[C@H](CC1CCOCC1)n1ncc2c(S(=O)(=O)C3CC3)cc(F)cc21	77	
96	100	O=C(Nc1ncc(F)s1)[C@H](CC1CCOCC1)n1ncc2c(S(=O)(=O)C3CC3)cc(O)cc21		
26	500	O=C(Nc1ncc(Cl)s1)[C@H](CC1CCOCC1)n1ncc2cc(S(=O)(=O)C3CC3)ccc21		
77	1200	Cc1cc(S(=O)(=O)C2CC2)cc(=O)n1[C@@H](CC1CCOCC1)C(=O)Nc1ncc(Cl)s1		Activity (Mus musculus [6]): Active
100	100	COc1cc(S(=O)(=O)C2CC2)c2cnn([C@@H](CC3CCOCC3)C(=O)Nc3ncc(F)s3)c2c1	78	
97	100	NC(=O)c1cc(S(=O)(=O)C2CC2)c2cnn([C@@H](CC3CCOCC3)C(=O)Nc3ncc(F)s3)c2c1		
73	3100	O=C(Nc1ccn(CCO)n1)C(CC1CCOCC1)n1ncc2c(S(=O)(=O)C3CC3)cccc21 (racemic)	12.5	
49	1600	NC(=O)c1cnc(NC(=O)C(CC2CCOCC2)n2ncc3c(S(=O)(=O)C4CC4)cccc32)s1 (racemic)	26	
71	80	O=C(Nc1ncc(F)s1)[C@H](CC1CCOCC1)n1ncc2c(S(=O)(=O)C3CC3)cncc21	46	hepatic extraction ratio [2]: 0.33; CL/F [7]: 29 mL/min/kg; bioavailability [8]: 51%; hepatic extraction ratio [3]: 0.59; half-life [9]: 4.3 h; Activity (Mus musculus [10]): Active; Vd (Rattus norvegicus): 1.9 L/kg; hepatic extraction ratio [11]: 0.56; Activity (Mus musculus [6]): Active
79	1200	Cn1ccc(NC(=O)C(CC2CCOCC2)n2ncc3c(S(=O)(=O)C4CC4)cccc32)n1 (racemic)	23	
95	790	O=C(Nc1cnccn1)[C@H](CC1CCOCC1)n1ncc2c(S(=O)(=O)C3CC3)cccc21	45	
88	630	O=C(Nc1ncc(Cl)s1)[C@H](CC1CCCC1)n1cc(S(=O)(=O)C2CC2)cn1		hepatic extraction ratio [2]: 0.85; hepatic extraction ratio [3]: 0.91
